# Data as given in patent US7994140B2, “Classes of compounds that interact with GPCRs” (Alchemia Limited, priority 2002, dated 2011).
# Biological target: T1, SST5 (Homo sapiens, UniProt P35346)
# T1 construct: purchased Perkin Elmer BioSignal; host or cells: HEK 293
# Assay: GPCR radioligand binding (RLB) assay, somatostatin SST5, [125I]SST-14
# Settings: 10 micromolar compound; Example Library 8
# Experimental: Recombinant human receptors expressed in HEK 293 cells were used for all experiments. Receptor membrane preparations were purchased from Perkin Elmer BioSignal. The labelled ligand used in somatostatin GPCR RLB assays was [^125I]SST-14 and in melanocortin assays was [^125I]NDP-αMSH. All assays were done in a 96-well plate format using either glass fiber filter mats or filter plates. All reagents purchased were of the highest quality.
# Specific assay buffer, incubation and washing conditions were optimized for each receptor however they all followed the same general format. The procedures for both filter mat and filter plate formats are based on the receptor manufacturers recommendations or those described extensively in the literature. The procedures are briefly outlined below.
# In assays where filter mats are used we incubate receptor membranes, assay buffer and [^125I] labelled ligand in 96 well microplates. Add compounds to incubation mixture and continue incubation for optimized period. Presoak Filter mat GF/B in 0.5% PEI for ˜2 hr at 4° C. On completion of assay mixture incubation add additional 100 μL/well of assay buffer immediately prior to filtration. Filter the assay mixture onto the GF/B filter mat using a cell harvester. Dry the filter mats prior to sealing them into a scintillation counting bag with scintillant. Radioactivity in each well is detected by liquid scintillation counting.
# In assays where filter plates are used Multiscreen glass fiber filter plates (Millipore, Cat No MAFCNOB10) are precoated with 0.5% PEI for ˜2 hr at 4° C. All wells are then washed with 200 µl/well assay buffer and filtered using the Multiscreen Separation System. Subsequently receptor membranes, assay buffer and labelled ligands are added to the wells and equilibrated. Compounds for testing are then added to the mixture and incubation is continued for an optimized time. Plates are then put into the Multiscreen Separation System and the assay mixture is filtered through the plate under vacuum. Each well is then washed several times with assay buffer. Plates are then dried prior to putting sealing tape onto the bottom of the plate. Scintillant is added to each well and radioactivity measured by liquid scintillation counting.
# Raw data was analysed according to standard methods using either GraphPad Prism software or IDDBS ActivityBase software.
# T1 sequence (P35346 whole entry): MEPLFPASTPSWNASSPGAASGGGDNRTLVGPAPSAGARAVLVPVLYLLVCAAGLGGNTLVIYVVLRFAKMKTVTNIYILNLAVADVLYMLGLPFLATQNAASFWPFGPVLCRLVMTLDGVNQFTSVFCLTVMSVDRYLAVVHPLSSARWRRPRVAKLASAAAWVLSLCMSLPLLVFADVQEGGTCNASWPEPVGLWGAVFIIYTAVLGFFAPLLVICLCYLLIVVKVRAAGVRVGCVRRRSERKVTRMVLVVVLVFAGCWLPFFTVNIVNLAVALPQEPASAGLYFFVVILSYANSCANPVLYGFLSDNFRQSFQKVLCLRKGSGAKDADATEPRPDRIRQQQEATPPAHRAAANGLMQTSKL
row,Compound,SSTS inhibition at 10 micromolar
1,CSC1O[C@H](COCc2cccc(N)c2)[C@@H](O)[C@H](OCc2ccccc2)[C@H]1NC(=O)CCC1CNc2ccccc21 (stereo partly shown) [Compound 337],+ (Indicates inhibition greater than . . . 50%)

# Same assay, conditions: 10 micromolar compound; recombinant human receptor membranes (HEK 293)
row,Compound,SST5 inhibition at 10 micromolar
1,COC[C@H]1OC(OCc2ccc(-c3ccccc3)cc2)[C@H](NC(=O)CNC(=N)N)[C@@H](OCc2ccc(-c3ccccc3)cc2)[C@@H]1O (stereo partly shown) [Compound 1],+ (Indicates inhibition greater than . . . 50%)
2,COC[C@H]1OC(OCc2ccccc2)[C@H](NC(=O)CCNC(=N)N)[C@@H](OCc2ccc(-c3ccccc3)cc2)[C@@H]1O (stereo partly shown) [Compound 6],+ (Indicates inhibition greater than . . . 50%)
3,COC[C@H]1OC(OCc2ccc(Cl)cc2)[C@H](NC(=O)CCNC(=N)N)[C@@H](OCc2ccc(-c3ccccc3)cc2)[C@@H]1O (stereo partly shown) [Compound 13],+ (Indicates inhibition greater than . . . 50%)
4,CSC1OC(COC(=O)Cc2c[nH]c3ccccc23)C(O)C(OCc2cccc(N)c2)C1NCc1ccccc1 (stereo not shown) [Compound 310],+ (Indicates inhibition greater than . . . 50%)
5,CSC1OC(COC(=O)c2ccccc2)C(O)C(OCc2cccc(N)c2)C1NCc1ccc(Cl)cc1 (stereo not shown) [Compound 312],+ (Indicates inhibition greater than . . . 50%)
6,CSC1OC(COC(=O)Cc2c[nH]c3ccccc23)C(O)C(OCc2cccc(N)c2)C1NCc1ccc(Cl)cc1 (stereo not shown) [Compound 315],+ (Indicates inhibition greater than . . . 50%)
7,CSC1O[C@H](COCc2ccccc2)[C@@H](O)[C@H](OCc2cccc(N)c2)[C@H]1NC(=O)c1ccccc1 (stereo partly shown) [Compound 316],+ (Indicates inhibition greater than . . . 50%)
8,CSC1O[C@H](COCc2ccccc2)[C@@H](O)[C@H](OCc2cccc(N)c2)[C@H]1NC(=O)Cc1c[nH]c2ccccc12 (stereo partly shown) [Compound 319],+ (Indicates inhibition greater than . . . 50%)
9,CSC1O[C@H](COCc2ccc(Cl)cc2)[C@@H](O)[C@H](OCc2cccc(N)c2)[C@H]1NC(=O)c1ccccc1 (stereo partly shown) [Compound 321],+ (Indicates inhibition greater than . . . 50%)
10,CSC1O[C@H](COCc2ccc(Cl)cc2)[C@@H](O)[C@H](OCc2cccc(N)c2)[C@H]1NC(=O)Cc1ccccc1 (stereo partly shown) [Compound 322],+ (Indicates inhibition greater than . . . 50%)
11,CSC1OC(COCc2cccc(N)c2)C(O)C(OCc2ccccc2)C1NC(=O)c1ccccc1 (stereo not shown) [Compound 326],+ (Indicates inhibition greater than . . . 50%)
12,CSC1OC(COCc2cccc(N)c2)C(O)C(OCc2ccccc2)C1NC(=O)Cc1c[nH]c2ccccc12 (stereo not shown) [Compound 329],+ (Indicates inhibition greater than . . . 50%)

# Same assay, conditions: 10 micromolar; Example Library 4
row,Compound,SSTS inhibition at 10 micromolar
1,COCC1OC(OCc2ccc3ccccc3c2)C(NC(=O)CCCNC(=N)N)C(OCc2ccccc2)C1O (stereo not shown) [Compound 289],+ (Indicates inhibition greater than . . . 50%)
2,COCC1OC(OCc2ccc3ccccc3c2)C(NC(=O)CN)C(OCc2ccc(Cl)cc2)C1O (stereo not shown) [Compound 290],+ (Indicates inhibition greater than . . . 50%)
3,COCC1OC(OCc2ccc3ccccc3c2)C(NC(=O)CCN)C(OCc2ccc(Cl)cc2)C1O (stereo not shown) [Compound 292],+ (Indicates inhibition greater than . . . 50%)
4,COCC1OC(OCc2ccc3ccccc3c2)C(NC(=O)CN)C(OCc2ccc(-c3ccccc3)cc2)C1O (stereo not shown) [Compound 296],+ (Indicates inhibition greater than . . . 50%)
5,COCC1OC(OCc2ccc3ccccc3c2)C(NC(=O)CCN)C(OCc2ccc3ccccc3c2)C1O (stereo not shown) [Compound 304],+ (Indicates inhibition greater than . . . 50%)
6,COCC1OC(OCc2ccc3ccccc3c2)C(NC(=O)CCCN)C(OCc2ccc3ccccc3c2)C1O (stereo not shown) [Compound 306],+ (Indicates inhibition greater than . . . 50%)

# Biological target: T2, MC4 (Homo sapiens, UniProt P32245)
# T2 construct: purchased Perkin Elmer BioSignal; host or cells: HEK 293
# Assay: GPCR radioligand binding (RLB) assay, melanocortin MC4, [125I]NDP-αMSH
# Settings: 10 micromolar compound; recombinant human receptor membranes (HEK 293)
# In short: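 Competition binding against radioligand ([125I]NDP-αMSH for MC4, [125I]SST-14 for SST5) on membranes of HEK 293 cells carrying the human receptor; buffer and incubation time optimized per receptor. Filtration through 0.5% PEI-treated glass fiber, washing, then scintillation counting.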
# T2 sequence (P32245 whole entry): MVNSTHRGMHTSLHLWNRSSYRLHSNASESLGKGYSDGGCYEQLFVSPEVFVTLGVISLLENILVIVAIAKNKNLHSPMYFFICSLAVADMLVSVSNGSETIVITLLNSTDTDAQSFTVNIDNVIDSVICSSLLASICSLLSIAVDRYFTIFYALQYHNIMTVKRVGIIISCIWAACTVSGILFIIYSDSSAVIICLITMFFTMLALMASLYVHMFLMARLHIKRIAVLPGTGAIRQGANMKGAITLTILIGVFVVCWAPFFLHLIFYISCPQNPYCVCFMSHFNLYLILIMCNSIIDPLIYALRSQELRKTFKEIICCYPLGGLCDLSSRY
row,Compound,MC4 inhibition at 10 micromolar
1,COC[C@H]1OC(OCc2ccc(-c3ccccc3)cc2)[C@H](NC(=O)CNC(=N)N)[C@@H](OCc2ccc(-c3ccccc3)cc2)[C@@H]1O (stereo partly shown) [Compound 1],+ (Indicates inhibition greater than . . . 50%)
2,COC[C@H]1OC(OCc2ccccc2)[C@H](NC(=O)CCNC(=N)N)[C@@H](OCc2ccc(-c3ccccc3)cc2)[C@@H]1O (stereo partly shown) [Compound 6],+ (Indicates inhibition greater than . . . 50%)
3,COC[C@H]1OC(OCc2ccc(Cl)cc2)[C@H](NC(=O)CCNC(=N)N)[C@@H](OCc2ccc(-c3ccccc3)cc2)[C@@H]1O (stereo partly shown) [Compound 13],+ (Indicates inhibition greater than . . . 50%)
